Data from PubChem BioAssay (NCI).
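GI50 is the concentration that inhibits growth by half. TGI marks complete inhibition of growth.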

Key:
Assay in all cases: NCI-60 cell line screen, 384-well format
[1] = system: 786-0 renal
[2] = system: A498 renal
[3] = system: A549 NSCLC
[4] = system: ACHN renal
[5] = system: BT-549 breast
[6] = system: CAKI-1 renal
[7] = system: CCRF-CEM leukemia
[8] = system: COLO 205 colon
[9] = system: DU-145 prostate
[10] = system: EKVX NSCLC
[11] = system: HCC-2998 colon
[12] = system: HCT-15 colon
[13] = system: HL-60(TB) leukemia
[14] = system: HOP-62 NSCLC
[15] = system: HOP-92 NSCLC
[16] = system: HS 578T breast
[17] = system: HT29 colon
[18] = system: IGROV1 ovarian
[19] = system: KM12 colon
[20] = system: M14 melanoma
[21] = system: MALME-3M melanoma
[22] = system: MCF7 breast
[23] = system: MDA-MB-231 breast
[24] = system: MDA-MB-435 melanoma
[25] = system: MDA-MB-468 breast
[26] = system: MOLT-4 leukemia
[27] = system: NCI-H226 lung
[28] = system: NCI-H23 lung
[29] = system: NCI-H322M lung
[30] = system: NCI-H460 NSCLC
[31] = system: NCI-H522 lung
[32] = system: NCI/ADR-RES ovarian
[33] = system: OVCAR-3 ovarian
[34] = system: OVCAR-4 ovarian
[35] = system: OVCAR-5 ovarian
[36] = system: OVCAR-8 ovarian
[37] = system: PC-3 prostate
[38] = system: RPMI-8226 leukemia
[39] = system: RXF 393 renal
[40] = system: SF-268 CNS
[41] = system: SF-295 CNS
[42] = system: SF-539 CNS
[43] = system: SK-MEL-2 melanoma
[44] = system: SK-MEL-28 melanoma
[45] = system: SK-MEL-5 melanoma
[46] = system: SK-OV-3 ovarian
[47] = system: SN12C renal
[48] = system: SNB-19 CNS
[49] = system: SNB-75 CNS
[50] = system: SR leukemia
[51] = system: SW-620 colon
[52] = system: T-47D breast
[53] = system: U251 glioblastoma
[54] = system: UACC-257 melanoma
[55] = system: UACC-62 melanoma

Structure (SMILES): CC1=C(CO)C2=C(C)C3(CC3)[C@@](C)(O)C(=O)C2=C1
- GI50 [1]: 180 nM
- TGI [1]: 381 nM
- GI50 [2]: 50.8 nM
- TGI [2]: 367 nM
- GI50 [3]: 96.2 nM
- TGI [3]: 527 nM
- GI50 [4]: 214 nM
- TGI [4]: 404 nM
- GI50 [5]: 132 nM
- TGI [5]: 269 nM
- GI50 [6]: 178 nM
- TGI [6]: 372 nM
- GI50 [7]: 1490 nM
- TGI [7]: 2830 nM
- GI50 [8]: 132 nM
- TGI [8]: 272 nM
- GI50 [9]: 46.8 nM
- TGI [9]: 305 nM
- GI50 [10]: 203 nM
- TGI [10]: 452 nM
- GI50 [11]: 110 nM
- TGI [11]: 240 nM
- GI50 [12]: 188 nM
- TGI [12]: 365 nM
- GI50 [13]: 179 nM
- TGI [13]: 334 nM
- GI50 [14]: 159 nM
- TGI [14]: 316 nM
- GI50 [15]: 124 nM
- TGI [15]: 445 nM
- GI50 [16]: 325 nM
- TGI [16]: 1070 nM
- GI50 [17]: 184 nM
- TGI [17]: 395 nM
- GI50 [18]: 163 nM
- TGI [18]: 447 nM
- GI50 [19]: 1400 nM
- TGI [19]: 3360 nM
- GI50 [20]: 234 nM
- TGI [20]: 576 nM
- GI50 [21]: 152 nM
- TGI [21]: 296 nM
- GI50 [22]: 184 nM
- TGI [22]: 496 nM
- GI50 [23]: 203 nM
- TGI [23]: 473 nM
- GI50 [24]: 1760 nM
- TGI [24]: 3480 nM
- GI50 [25]: 45.1 nM
- TGI [25]: 125 nM
- GI50 [26]: 147 nM
- TGI [26]: 336 nM
- GI50 [27]: 297 nM
- TGI [27]: 793 nM
- GI50 [28]: 53.9 nM
- TGI [28]: 181 nM
- GI50 [29]: 182 nM
- TGI [29]: 369 nM
- GI50 [30]: 43.7 nM
- TGI [30]: 174 nM
- GI50 [31]: 116 nM
- TGI [31]: 244 nM
- GI50 [32]: 222 nM
- TGI [32]: 428 nM
- GI50 [33]: 152 nM
- TGI [33]: 312 nM
- GI50 [34]: 201 nM
- TGI [34]: 392 nM
- GI50 [35]: 213 nM
- TGI [35]: 519 nM
- GI50 [36]: 219 nM
- TGI [36]: 527 nM
- GI50 [37]: 186 nM
- TGI [37]: 404 nM
- GI50 [38]: 5960 nM
- TGI [38]: 18000 nM
- GI50 [39]: 16.7 nM
- TGI [39]: 35.8 nM
- GI50 [40]: 143 nM
- TGI [40]: 318 nM
- GI50 [41]: 185 nM
- TGI [41]: 374 nM
- GI50 [42]: 173 nM
- TGI [42]: 313 nM
- GI50 [43]: 237 nM
- TGI [43]: 392 nM
- GI50 [44]: 251 nM
- TGI [44]: 624 nM
- GI50 [45]: 166 nM
- TGI [45]: 376 nM
- GI50 [46]: 179 nM
- TGI [46]: 390 nM
- GI50 [47]: 231 nM
- TGI [47]: 761 nM
- GI50 [48]: 317 nM
- TGI [48]: 1240 nM
- GI50 [49]: 119 nM
- TGI [49]: 250 nM
- GI50 [50]: 171 nM
- TGI [50]: 361 nM
- GI50 [51]: 1160 nM
- TGI [51]: 3150 nM
- GI50 [52]: 159 nM
- TGI [52]: 423 nM
- GI50 [53]: 203 nM
- TGI [53]: 410 nM
- GI50 [54]: 216 nM
- TGI [54]: 465 nM
- GI50 [55]: 394 nM
- TGI [55]: 1520 nM
